Results on 22 compounds are retold here after ChEMBL document CHEMBL1201862, “PubChem BioAssay data set” (2004).

Activity calls are given as the source filed them.

The target in test [1] is T1, Rac GTPase-activating protein 1 (Homo sapiens, UniProt Q9H0H5).
T1 sequence (Q9H0H5 whole entry): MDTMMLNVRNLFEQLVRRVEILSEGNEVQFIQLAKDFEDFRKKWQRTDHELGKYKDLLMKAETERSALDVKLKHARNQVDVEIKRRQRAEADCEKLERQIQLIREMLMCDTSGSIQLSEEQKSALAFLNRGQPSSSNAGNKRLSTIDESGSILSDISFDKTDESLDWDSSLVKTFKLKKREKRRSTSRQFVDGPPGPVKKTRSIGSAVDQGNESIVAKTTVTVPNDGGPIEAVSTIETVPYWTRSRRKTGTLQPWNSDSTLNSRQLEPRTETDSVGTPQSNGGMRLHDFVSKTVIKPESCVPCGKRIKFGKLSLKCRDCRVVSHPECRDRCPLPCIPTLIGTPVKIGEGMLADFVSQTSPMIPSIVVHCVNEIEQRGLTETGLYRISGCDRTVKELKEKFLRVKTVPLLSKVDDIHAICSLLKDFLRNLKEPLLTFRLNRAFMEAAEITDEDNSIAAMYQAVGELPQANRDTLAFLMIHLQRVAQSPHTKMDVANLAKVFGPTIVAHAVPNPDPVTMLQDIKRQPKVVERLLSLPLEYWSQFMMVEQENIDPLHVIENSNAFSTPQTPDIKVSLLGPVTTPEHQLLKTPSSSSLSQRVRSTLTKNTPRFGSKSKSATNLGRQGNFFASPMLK
Nature of the test: MgcRacGAP GTPase-activating activity inhibitors, confirmation, biochemical, ADP Hunter fluorescence, primary and confirmatory (AID 624330). The class given is functional.

Test [2] addresses Cytochrome P450 2C19 (Homo sapiens, UniProt P33261). Nature of the test: Cytochrome panel assay with activity outcomes. Panel member name: p450-cyp2c19 Compounds with AC50 equal or less than 10 uM are considered active. The settings on record: read-out: AC50. The class given is functional.
For test [3], the target named is Cytochrome P450 3A4 (Homo sapiens, UniProt P08684).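 Note: CYP3A4 tested as one member of a cytochrome P450 panel screen.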
Sequence of Cytochrome P450 3A4 (P08684 whole entry): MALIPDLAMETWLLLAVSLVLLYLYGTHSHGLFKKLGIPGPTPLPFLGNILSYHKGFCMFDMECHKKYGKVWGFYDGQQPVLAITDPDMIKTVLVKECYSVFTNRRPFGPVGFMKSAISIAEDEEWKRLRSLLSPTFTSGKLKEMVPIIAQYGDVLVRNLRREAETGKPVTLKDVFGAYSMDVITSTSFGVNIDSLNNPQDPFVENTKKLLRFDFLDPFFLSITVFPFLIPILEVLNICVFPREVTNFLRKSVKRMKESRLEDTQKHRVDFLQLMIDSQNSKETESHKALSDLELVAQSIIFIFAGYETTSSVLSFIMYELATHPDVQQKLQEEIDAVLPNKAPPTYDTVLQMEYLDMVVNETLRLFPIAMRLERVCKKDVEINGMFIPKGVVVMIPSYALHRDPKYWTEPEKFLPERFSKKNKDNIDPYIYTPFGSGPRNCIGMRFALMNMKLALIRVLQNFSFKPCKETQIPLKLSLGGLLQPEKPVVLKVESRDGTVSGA
For test [4], the target named is Cytochrome P450 2C9 (Homo sapiens, UniProt P11712).
Sequence of Cytochrome P450 2C9 (P11712 whole entry): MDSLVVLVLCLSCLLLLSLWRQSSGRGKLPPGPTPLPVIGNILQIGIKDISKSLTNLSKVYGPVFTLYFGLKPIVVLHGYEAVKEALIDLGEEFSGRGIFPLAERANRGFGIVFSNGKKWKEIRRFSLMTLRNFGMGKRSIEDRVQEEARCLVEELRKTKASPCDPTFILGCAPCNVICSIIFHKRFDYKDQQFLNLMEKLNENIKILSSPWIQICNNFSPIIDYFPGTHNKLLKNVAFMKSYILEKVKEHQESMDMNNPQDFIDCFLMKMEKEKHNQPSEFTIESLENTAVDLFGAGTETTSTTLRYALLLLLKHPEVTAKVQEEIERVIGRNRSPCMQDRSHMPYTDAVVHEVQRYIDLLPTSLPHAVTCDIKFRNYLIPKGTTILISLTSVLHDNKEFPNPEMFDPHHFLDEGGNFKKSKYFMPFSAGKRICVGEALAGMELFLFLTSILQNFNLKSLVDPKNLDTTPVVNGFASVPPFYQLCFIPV
Test [5] concerns the target T2, Cytochrome P450 1A2 (Homo sapiens, UniProt P05177).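 Note: PubChem cytochrome P450 panel assay, CYP1A2 panel member.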
T2 sequence (P05177 whole entry): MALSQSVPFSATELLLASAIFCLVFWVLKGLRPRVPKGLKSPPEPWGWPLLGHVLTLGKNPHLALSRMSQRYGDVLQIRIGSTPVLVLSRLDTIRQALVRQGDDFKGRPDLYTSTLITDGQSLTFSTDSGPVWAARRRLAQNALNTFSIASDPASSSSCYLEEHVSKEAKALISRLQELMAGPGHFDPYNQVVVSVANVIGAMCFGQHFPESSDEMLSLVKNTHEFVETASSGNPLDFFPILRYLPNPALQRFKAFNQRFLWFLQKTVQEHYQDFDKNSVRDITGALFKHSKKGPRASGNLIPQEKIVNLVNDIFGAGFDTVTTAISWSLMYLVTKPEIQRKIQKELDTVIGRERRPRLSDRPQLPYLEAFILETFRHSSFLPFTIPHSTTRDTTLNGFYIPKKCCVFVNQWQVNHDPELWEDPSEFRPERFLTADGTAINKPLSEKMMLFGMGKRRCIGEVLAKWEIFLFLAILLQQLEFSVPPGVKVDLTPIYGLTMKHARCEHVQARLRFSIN

Test [6] addresses T3, Corticotropin-releasing factor receptor 2/Corticotropin-releasing factor-binding protein (Homo sapiens, UniProt P24387+Q13324).
T3 sequence (Q13324 whole entry): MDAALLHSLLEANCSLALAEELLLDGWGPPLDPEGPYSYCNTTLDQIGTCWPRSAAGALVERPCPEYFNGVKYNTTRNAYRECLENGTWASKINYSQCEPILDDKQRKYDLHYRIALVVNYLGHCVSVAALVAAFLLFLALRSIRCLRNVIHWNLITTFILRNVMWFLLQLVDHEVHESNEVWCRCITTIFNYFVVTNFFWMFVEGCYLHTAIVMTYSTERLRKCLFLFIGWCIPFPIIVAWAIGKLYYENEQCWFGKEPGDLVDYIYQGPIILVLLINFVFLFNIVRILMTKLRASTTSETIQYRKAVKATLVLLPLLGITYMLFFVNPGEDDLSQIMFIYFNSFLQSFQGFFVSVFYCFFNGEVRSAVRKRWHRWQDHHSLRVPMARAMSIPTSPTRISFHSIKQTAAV
T3 sequence (P24387 whole entry): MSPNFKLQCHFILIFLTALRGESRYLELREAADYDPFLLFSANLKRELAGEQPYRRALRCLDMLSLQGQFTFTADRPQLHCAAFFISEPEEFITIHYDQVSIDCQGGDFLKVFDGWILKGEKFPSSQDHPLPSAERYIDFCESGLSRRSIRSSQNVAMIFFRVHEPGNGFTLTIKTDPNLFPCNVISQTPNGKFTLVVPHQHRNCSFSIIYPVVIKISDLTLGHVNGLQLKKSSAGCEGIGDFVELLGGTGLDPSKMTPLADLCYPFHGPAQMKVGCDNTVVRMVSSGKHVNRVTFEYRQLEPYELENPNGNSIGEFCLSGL
Nature of the test: activators of CRF receptor 2 with binding protein – uHTS hits, confirmation (AID 602473). The class given is functional. The settings on record: read-out: EC50_Mean.

A short description of test [7]: Luminescence Cell-Based Dose Retest to Confirm Inhibitors of Cancer Stem Cells. [Related pubchem assays (depositor defined):AID2717, AID2721]. As to conditions: Homo sapiens. The class given is functional.

Sequence of Cytochrome P450 2C19 (P33261 whole entry): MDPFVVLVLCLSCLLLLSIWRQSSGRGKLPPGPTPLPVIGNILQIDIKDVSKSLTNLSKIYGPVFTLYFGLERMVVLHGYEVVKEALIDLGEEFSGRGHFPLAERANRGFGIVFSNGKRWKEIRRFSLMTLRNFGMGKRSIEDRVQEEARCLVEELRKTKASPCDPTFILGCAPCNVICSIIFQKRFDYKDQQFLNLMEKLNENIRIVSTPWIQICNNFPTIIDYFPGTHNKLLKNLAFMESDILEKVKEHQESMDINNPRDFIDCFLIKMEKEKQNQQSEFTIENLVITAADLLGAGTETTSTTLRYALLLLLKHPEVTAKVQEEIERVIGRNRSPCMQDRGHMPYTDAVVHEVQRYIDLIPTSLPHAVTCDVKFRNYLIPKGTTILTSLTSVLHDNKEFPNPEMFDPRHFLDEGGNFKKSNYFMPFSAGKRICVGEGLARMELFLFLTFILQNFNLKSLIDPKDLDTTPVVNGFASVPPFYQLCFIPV

In the case of `COc1cc(C=C2NC(=O)NC2=O)ccc1O`, the IC50 in test [1] was 19 µM (active).
For the compound `C/C(=N\NC(=O)C1CC1c1ccccc1)c1cccs1` (centres undefined), the AC50 in test [2] was 2.24 µM (inconclusive); in test [3], 8.91 µM (inconclusive); in test [4], 11.2 µM (inconclusive); in test [5], 15.8 µM (inconclusive).
With `C/C=C(\C)C(=O)OC1CC(C)(C)C[C@H]2C3=CC[C@@H]4[C@@]5(C)CCC(O[C@@H]6O[C@@H](C(=O)O)[C@@H](O)C(O[C@@H]7OC[C@H](O)[C@@H](O)[C@@H]7O[C@@H]7OC(CO)C(O)[C@@H](O)[C@@H]7O)C6O[C@@H]6OC(CO)C(O)C(O)C6O)[C@@](C)(CO)[C@@H]5CC[C@]4(C)[C@]3(C)CC(O)[C@@]12CO` (some centres undefined), in test [6], the EC50 is 11.4 µM (active).
Take `CCOC(=O)c1[nH]c(C)c(C)c1C`: the figures for the AC50 in test [2] and in test [4] were 17.8 µM (inconclusive) and 1.12 µM (inconclusive), respectively.
For `Cc1ccc2c(c1)-c1c(cnn1CC(=O)O)CO2`, the results for the AC50 in test [4] and in test [5] were 11.2 µM (inconclusive) and 0.794 µM (inconclusive), respectively.
As for `Nc1cc(C(F)(F)F)ccc1N1CCOCC1`, in test [1], the IC50 is 29.9 µM (active).
Turning to `O=c1c(-c2cc(F)cc(F)c2)nc2cncnc2n1-c1ccccc1`, the AC50 was 6.31 µM (inconclusive) in test [2] and 10 µM (inconclusive) in test [4].
As for `O=C(CNC(=O)C1COc2ccccc2O1)N/N=C/c1ccc(O)cc1O` (centres undefined), in test [1], the half-inhibitory concentration (IC50) is 71.7 µM (active). Also, the AC50 in test [7] is 6.23 µM (active).
`Cc1ccsc1/C=C1\Oc2cc(O)ccc2C1=O`: in test [6], the EC50 is 11.1 µM (active).
For `Cc1cc(NC(=O)CCC(=O)N(CC2CCCO2)C(C(=O)NC2CCCC2)c2cccnc2)no1` (centres undefined), the concentration at half-maximal activity (AC50) is 1.41 µM (inconclusive) in test [3] and 17.8 µM (inconclusive) in test [4].
Regarding `O=S(=O)(c1ccc2ccccc2c1)N1CCN(c2ccc(O)cc2)CC1`, the IC50 in test [1] was 35.8 µM (active). Also, the half-maximal activity concentration (AC50) in test [7] was 6.17 µM (active).
With `COc1ccc(CNC(=O)CN(C)Cc2ccc(C(C)(C)C)cc2)cc1`, the IC50 in test [1] was 106 µM (active).
Consider `COc1cccc(Cn2c(=O)c(-c3cccs3)nc3cnc(OCc4ccccc4)nc32)c1`, for which the figures for the AC50 in test [3], in test [4] and in test [5] were 7.94 µM (inconclusive), 0.631 µM (inconclusive) and 1.58 µM (inconclusive), respectively.
On to `COc1cc(OC)c(OC)cc1/C=N/N(C)c1ccccc1`, for which the IC50 in test [1] is 43.7 µM (active).
On the same count and under the same terms, the figure for `O=C(CNCC1CCCO1)Nc1ccc(N2CCCCCC2)cc1` (centres undefined) is 62.7 µM (active).
Regarding `Cn1c(=O)n(C)c2cc(/C=N/NC(=O)c3ccc(Cl)cc3Cl)ccc21`, the AC50 in test [3] is 0.0398 µM (inconclusive); in test [4] it was 39.8 µM (inconclusive); in test [5] it was 14.1 µM (inconclusive).
On to `O=C(CCN1CCCCCC1)Nc1ccc2c(c1)OCCO2`, for which the IC50 in test [1] is 338 µM (active).
As for `COC(=O)c1c(NC(=O)Cn2cc([N+](=O)[O-])cn2)sc2c1CCC2`, the half-maximal activity concentration (AC50) in test [2] was 3.16 µM (inconclusive); in test [4] it was 3.55 µM (inconclusive).
Turning to `Cc1nn(C(=O)c2ccco2)c(C)c1Sc1ccccc1`, the half-maximal activity concentration (AC50) in test [3] is 39.8 µM (inconclusive); in test [4] it was 2.24 µM (inconclusive).
On to `O=[N+]([O-])c1ccc(-c2ccc(/C=N/Nc3nc(N4CCCC4)nc(N4CCCC4)n3)o2)cc1`, for which the EC50 in test [6] is 2.8 µM (active).
Consider `O=C(NCc1ccc(OC(F)(F)F)cc1)c1cccc2c1C(=O)c1ccc(N3CCC(Cc4ccccc4)CC3)cc1S2(=O)=O`, for which the EC50 in test [6] is 8.45 µM (active).
With `Cc1nonc1NCn1nnc2ccccc21`, the AC50 is 14.1 µM (inconclusive) in test [2], 5.01 µM (inconclusive) in test [4] and 8.91 µM (inconclusive) in test [5].

By IC50 is commonly meant the midpoint of a concentration-inhibition curve. What is called AC50 is the midpoint of the concentration-response curve, whichever way the signal moves.
